# Structures can show the parent of a compound that is named as a salt.
# Test system: HT29
# Conditions: 72 h, relative to DMSO, 10 µM, Relative cell viability (%)
# Method in brief: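 Cells were exposed to drug for 72 h, then to WST-1 for 2 h at 37 °C, and absorbance was read at 450 nm as viability against DMSO treatment. In the screen, each compound was applied at 10 µM.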
row,Compound,Relative cell viability (%)
1,COc1ccccc1Oc1c(NS(=O)(=O)c2ccc(C(C)(C)C)cc2)nc(-c2ncccn2)nc1OCCO [Bosentan Hydrate],83.98%

# Same assay, conditions: 72 h, relative to DMSO; 10 µM
row,Compound,Relative cell viability (%)
1,O=C1NC(=O)[C@@H](c2cn3c4c(cccc24)CCC3)[C@@H]1c1c[nH]c2ccccc12 [Tivantinib (ARQ 197)],27.18%
2,Nc1nccs1 [Aminothiazole],93.03%
3,Nc1nc(F)nc2c1ncn2[C@@H]1O[C@H](COP(=O)(O)O)[C@@H](O)[C@@H]1O [Fludarabine Phosphate],52.49%
4,COc1ccc2[nH]c([S+]([O-])Cc3ncc(C)c(OC)c3C)nc2c1 (stereo not shown) [Omeprazole],88.32%
5,Sc1ncnc2nc[nH]c12 [Mercaptopurine (6-MP)],52.49%
6,CC[C@@H]1/C=C(\C)C[C@H](C)C[C@H](OC)[C@H]2O[C@@](O)(C(=O)C(=O)N3CCCC[C@H]3C(=O)O[C@H](/C(C)=C/[C@@H]3CC[C@H](Cl)[C@H](OC)C3)[C@H](C)[C@@H](O)CC1=O)[C@H](C)C[C@@H]2OC [Pimecrolimus],64.96%
7,CC12CC3CC(C)(C1)CC(N)(C3)C2 [Memantine HCl],108.7%
8,NC(=O)[C@@H]1CCCN1C(=O)[C@H](Cc1cnc[nH]1)NC(=O)[C@@H]1CCC(=O)N1 [Protirelin],76.5%
9,COc1nc(C)nc(Cl)c1N=C1NCCN1 [Moxonidine],116.7%
10,Nc1ccc(S(=O)(=O)Nc2ncccn2)cc1 [Sulfadiazine],85.59%
11,CCCCc1oc2ccc(NS(C)(=O)=O)cc2c1C(=O)c1ccc(OCCCN(CCCC)CCCC)cc1 [Dronedarone HCl],86.05%
12,C=C1[C@H](CO)[C@@H](O)C[C@@H]1n1cnc2c(=O)[nH]c(N)nc21 [Entecavir Hydrate],99.22%
13,COc1ccc2c(c1)c(CC(=O)OCC(=O)O)c(C)n2C(=O)c1ccc(Cl)cc1 [Acemetacin],81.07%
14,"COc1cc2ncnc(Nc3ccc(F)c(Cl)c3)c2cc1NC(=O)/C=C/CN1CCCCC1 [Dacomitinib (PF299804, PF299)]",11.17%
15,C[C@H]1O[C@H](O[C@H]2[C@H](O)[C@@H](O)[C@@H](O[C@H]3[C@H](O)[C@@H](O)C(O)O[C@@H]3CO)O[C@@H]2CO)[C@H](O)[C@@H](O)[C@@H]1N[C@H]1C=C(CO)[C@@H](O)[C@H](O)[C@H]1O (stereo partly shown) [Acarbose],103.9%
16,C[C@]12C=CC(=O)C=C1CC[C@@H]1[C@@H]2[C@@H](O)C[C@@]2(C)[C@H]1CC[C@]2(O)C(=O)CO [Prednisolone],56.36%
17,CCOC(=O)c1ccc(N)cc1 [Benzocaine],80.303%
18,CCCCCCNC(=O)n1cc(F)c(=O)[nH]c1=O [Carmofur],24.45%
19,C=C(c1ccc(C(=O)O)cc1)c1cc2c(cc1C)C(C)(C)CCC2(C)C [Bexarotene],134.4%
20,COc1ccccc1N1CCN(CCCNc2cc(=O)n(C)c(=O)n2C)CC1 [Urapidil HCl],222.9%
21,"CC(C)OC(=O)[C@H](C)N[P@](=O)(OC[C@H]1O[C@@H](n2ccc(=O)[nH]c2=O)[C@](C)(F)[C@@H]1O)Oc1ccccc1 [Sofosbuvir (PSI-7977, GS-7977)]",121.8%
22,CC(C(=O)O)c1cccc(Oc2ccccc2)c1 (stereo not shown) [Fenoprofen Calcium],99.58%
23,CCOC(=O)c1c(C)n(C)c2ccc(O)cc12 [Mecarbinate],130.3%

row,Compound,Relative cell viability (%)
1,COc1ccc(-c2ccc3cc(C(=O)O)ccc3c2)cc1[C@]12C[C@H]3C[C@H](C[C@H](C3)C1)C2 [Adapalene],16.67%
2,CC(/C=C1\SC(=S)N(CC(=O)O)C1=O)=C\c1ccccc1 [Epalrestat],135.7%
3,Cn1c(=O)cc(N2CCC[C@@H](N)C2)n(Cc2ccccc2C#N)c1=O [Alogliptin],101.5%
4,COc1cc(/C=C/C(=O)CC(=O)/C=C/c2ccc(O)c(OC)c2)ccc1O [Curcumin],46.19%
5,Cc1ccc(S(=O)(=O)NC(=O)NN2CC3CCC[C@@H]3C2)cc1 (stereo in doubt) [Gliclazide],70.87%
6,Cc1c(O)cccc1C(=O)N[C@@H](CSc1ccccc1)[C@H](O)CN1C[C@H]2CCCC[C@H]2C[C@H]1C(=O)NC(C)(C)C [Nelfinavir Mesylate],23.94%
7,Nc1nnc(-c2cccc(Cl)c2Cl)c(N)n1 [Lamotrigine],100%
8,CCCCCCCCCCCCCCCC(=O)O[C@@H]1[C@@H](O)[C@@H](O)[C@@H]([C@H](NC(=O)[C@@H]2C[C@@H](CCC)CN2C)[C@H](C)Cl)O[C@@H]1SC [Clindamycin palmitate HCl],40.29%
9,CCCOc1ccc(C(=O)OCCN(CC)CC)cc1N [Proparacaine HCl],89.41%
10,Clc1ccc2c(c1)C(N1CCNCC1)=Nc1ccccc1O2 [Amoxapine],73.94%
11,COc1cc(/C=C/C(=O)N2CCN(CC(=O)N3CCCC3)CC2)cc(OC)c1OC [Cinepazide maleate],86.89%
12,CC(C)C(=O)Oc1ccc(CO)cc1[C@H](CCN(C(C)C)C(C)C)c1ccccc1 [Fesoterodine Fumarate],112.6%
13,Cc1ccc(C(=O)C(C)CN2CCCCC2)cc1 (stereo not shown) [Tolperisone HCl],89.39%
14,CNC(=C[N+](=O)[O-])NCCSCc1ccc(CN(C)C)o1 [Ranitidine],97.03%
15,CN1CCC(=C2c3ccccc3CC(=O)c3sccc32)CC1 [Ketotifen Fumarate],182.5%
16,CCc1nc(N)nc(N)c1-c1ccc(Cl)cc1 [Pyrimethamine],41.03%
17,O=C(O)c1cccnc1Nc1cccc(C(F)(F)F)c1 [Niflumic acid],95.63%
18,O=C(O)C[C@H](O)C[C@H](O)/C=C/c1c(C2CC2)nc2ccccc2c1-c1ccc(F)cc1 [Pitavastatin Calcium],44.92%
19,COc1ccc(Cl)c(Nc2nc3ccccc3nc2NS(=O)(=O)c2cccc(NC(=O)C(C)(C)N)c2)c1 [Pilaralisib (XL147)],48.29%
20,C[C@H]1O[C@@H](n2cc(F)c(=O)[nH]c2=O)[C@H](O)[C@@H]1O [Doxifluridine],150.2%
21,Oc1c(Cl)cc(Cl)c2cccnc12 [Chloroxine],69.07%
22,Cc1ccccc1C(=O)Nc1ccc(C(=O)N2CCCC(O)c3cc(Cl)ccc32)c(C)c1 (stereo not shown) [Tolvaptan],54.85%
23,CCc1oc2ccccc2c1C(=O)c1cc(Br)c(O)c(Br)c1 [Benzbromarone],82.12%

row,Compound,Relative cell viability (%)
1,CC(=O)O[C@]1(C(C)=O)CC[C@H]2[C@@H]3C=C(C)C4=CC(=O)CC[C@]4(C)[C@H]3CC[C@@]21C [Megestrol Acetate],68.07%
2,c1ccc(CN(CC2=NCCN2)c2ccccc2)cc1 [Antazoline HCl],63.94%
3,CN1C(C(=O)Nc2ccccn2)=C(O)c2sc(Cl)cc2S1(=O)=O [Lornoxicam],228.6%
4,CCN(CCCc1ccccc1)CCCc1ccccc1 [Alverine Citrate],78.16%
5,O=c1[nH]c(=O)n([C@H]2C[C@H](O)[C@@H](CO)O2)cc1I [Idoxuridine],86.86%
6,CC(C)(Sc1cc(C(C)(C)C)c(O)c(C(C)(C)C)c1)Sc1cc(C(C)(C)C)c(O)c(C(C)(C)C)c1 [Probucol],130.3%
7,CCCCNc1cc(C(=O)O)cc(S(N)(=O)=O)c1Oc1ccccc1 [Bumetanide],61.84%
8,COc1cccc(-c2ccc(NC(=O)C3=C(C(=O)O)CCC3)c(F)c2)c1 [Vidofludimus],104.7%
9,N=C(N)NC(=O)c1nc(Cl)c(N)nc1N [Amiloride HCl],66.53%
10,C[C@@H]1[C@H](O)[C@@H](C)/C=C/C=C/CC/C=C/C=C/C=C/C=C/[C@H](O[C@H]2O[C@@H](C)[C@H](O)[C@@H](N)[C@H]2O)C[C@@H]2O[C@](O)(C[C@@H](O)[C@H](O)CC[C@@H](O)C[C@@H](O)C[C@@H](O)CC(=O)O[C@H]1C)C[C@H](O)[C@H]2C(=O)O [Nystatin (Fungicidin)],170.8%
11,"CCCS(=O)(=O)Nc1ccc(F)c(C(=O)c2c[nH]c3ncc(-c4ccc(Cl)cc4)cc23)c1F [Vemurafenib (PLX4032, RG7204)]",36.92%
12,CC[C@H](C)C(=O)O[C@H]1CCC=C2C=C[C@H](C)[C@H](CC[C@@H]3C[C@@H](O)CC(=O)O3)[C@H]21 [Mevastatin],86.67%
13,COCCCOc1cc(C[C@@H](C[C@H](N)[C@@H](O)C[C@H](C(=O)NCC(C)(C)C(N)=O)C(C)C)C(C)C)ccc1OC [Aliskiren Hemifumarate],106.1%
14,CCCCOc1cc(C(=O)OCCN(CC)CC)ccc1N [Oxybuprocaine HCl],56.67%
15,CCCCCCCN(CC)CCCC(O)c1ccc(NS(C)(=O)=O)cc1 (stereo not shown) [Ibutilide Fumarate],112%
16,O=C(CCCN1CCN(c2ccccn2)CC1)c1ccc(F)cc1 [Azaperone],93.03%
17,CCC1(c2ccccc2)C(=O)NCNC1=O [Primidone],178.2%
18,COc1ccc(NS(=O)(=O)c2ccc(N)cc2)nn1 [Sulfamethoxypyridazine],72.12%
19,CCOC(=O)[C@H]1O[C@@H]1C(=O)N[C@@H](CC(C)C)C(=O)NCCC(C)C [Aloxistatin],100.9%
20,CCC1=C(C)CN(C(=O)NCCc2ccc(S(=O)(=O)NC(=O)N[C@H]3CC[C@H](C)CC3)cc2)C1=O [Glimepiride],64.95%
21,COc1cc2c(cc1OC)[C@H]1CC(=O)[C@H](CC(C)C)CN1CC2 (racemic) [Tetrabenazine (Xenazine)],97.03%
22,NCCS [Cysteamine HCl],89.39%
23,O=C1c2ccccc2C(=O)C1c1ccccc1 [Phenindione],136.8%
